According to patent publication US7981876B2, “Polymorphic and amorphous salt forms of squalamine dilactate” (priority 2005, dated 2011):

How the values were obtained:
[1] = Accelerated stability study (temperature-based, four weeks) of four salt forms, reversed-phase HPLC of o-phthaldialdehyde derivatized samples; format: physicochemical
Procedure: An accelerated stability study (temperature-based) lasting four weeks was performed on squalamine in four different salt forms. The four salt forms were: dihydrochloride, diacetate, dilactate and D-digluconate. The samples were subjected to temperatures of 40° C., 60° C. and 80° C. The following table summarizes the results of % purity of main peak, squalamine, based on total integrated area. The analysis was performed using reversed-phase HPLC of o-phthaldialdehyde derivatized samples.

tails of CD-1®BR mice = assay: Local irritancy of 5-day repeated intravenous injections of squalamine salt forms in mice; format: in vivo
Description: A Study of Local Irritancy of 5-Day Repeated Intravenous Injections of Different Salt Forms (Ditrifluoroacetate, Dilactate, Digluconate, Diacetate) of MSI-1256 (Squalamine) in Mice
Objective: To determine the local irritancy of 5-day repeated daily intravenous doses of squalamine salt forms in tails of CD-1®BR mice.
Material and Methods: (Animals): Forty-eight male CD-1®BR mice (Charles River Lab). Mean body weight at study initiation was 20.6 gm. (Housing Environment): Mice were housed as groups (maximum 10 mice/box) in plastic mouse boxes with hardwood chip bedding and wire lids. They had access to food (Purina Mouse Chow) and water in bottles ad lib. The boxes were housed in isolator racks that were supplied with one-pass through filtered room air. The room in which the animals were housed was on a 12-hour on/12-hour off light cycle and had controlled temperature (range: 67-76° F.) and humidity (range: 40-70% relative humidity).
Solution prep: A 0.36 mg/mL solution of squalamine ditrifluoroacetate salt (equivalent to 0.25 mg/mL squalamine ditrifluroacetate active moiety) was prepared in D5W. A 0.31 mg/mL solution of squalamine diacetate salt (equivalent to 0.25 mg/mL squalamine diacetate active moiety) was prepared in D5W. A 0.33 mg/mL solution of squalamine dilactate salt (equivalent to 0.25 mg/mL squalamine dilactate active moiety) was prepared in D5W. A 0.45 mg/mL solution of squalamine digluconate salt (equivalent to 0.25 mg/mL squalamine digluconate active moiety) was prepared in D5W. A 1.0 mg/mL solution of magainin-2-amide (positive control) was prepared in D5W. Protocol: Mice were randomly assigned to six groups (8 mice/group) and received daily intravenous (i.v.) injections of solutions of D5W or squalamine salts in the tail vein for five days (study days 0, 1, 2, 3, and 4). […] One group of eight mice received test article magainin-2-amide (10 mg/kg/day; 10 mL/kg/day of a 1 mg/mL solution), which was previously determined to be local vein irritant, as a positive control. Mice were not injected with test article if severity of bruising or swelling (edema) warranted the omission of the injection. Survival was monitored and clinical signs were observed daily for five days of administration of squalamine salts and four days after the last dose (Study Day 8). Clinical signs of irritancy, edema, and bruising were made on days 1, 2, 3, and 4 approximately 24-hours after each injection and immediately prior to that day's injection. The pHs of the solutions of all test articles except magainin-2-amide were checked on Study Day 3. (The same solutions were used throughout the study so a similar pH on all study days may be assumed).

[2] = Heat stress stability at 70° C. for three days, HPLC with ELSD detection; format: physicochemical
Procedure: Samples of amorphous squalamine dilactate and squalamine dilactate recrystallized from ethanol as described in Example 5 were placed in scintillation vials and heated in an oven at 70° C. for three days. A portion of each heat stressed sample was then analyzed by HPLC with ELSD detection and the results compared with the HPLC analysis of unstressed material.

[3] = Heat Stressed, 70° C. for three days

Molecule | % purity of main peak, squalamine, based on total integrated area ([1]; 4w 40° C.) [%] | % purity of main peak, squalamine, based on total integrated area ([1]; 4w 60° C.) [%] | % purity of main peak, squalamine, based on total integrated area ([1]; 4w 80° C.) [%] | % purity of main peak, squalamine, based on total integrated area ([1]; T = 0) [%] | necrotic mouse tail (mice affected/group) (tails of CD-1®BR mice; mouse, in vivo) | also measured
squalamine diacetate | 87.3 | 81.5 | 62.9 | 94.4 | 1/8 | –
squalamine digluconate | 72.6 | 60.7 | 4.9 | 87.8 | – | tolerance of treatment (swelling, bruising, irritation of tails) (tails of CD-1®BR mice; 2.5 mg/kg/day i.v. tail vein for five days, 0.25 mg/mL solutions in D5W, compared with squalamine diacetate and ditrifluoroacetate): tolerated slightly better
squalamine ditrifluoroacetate | – | – | – | – | 1/8 | mouse tail fell off (mice affected/group) (tails of CD-1®BR mice; mouse, in vivo): 1/8
CC(C)[C@@H](CC[C@@H](C)[C@H]1CC[C@H]2[C@@H]3[C@H](O)C[C@H]4C[C@@H](NCCCNCCCCN)CC[C@]4(C)[C@H]3CC[C@]12C)OS(=O)(=O)O.C[C@H](O)C(=O)O.C[C@H](O)C(=O)O [Crystallized Squalamine] | – | – | – | – | – | change in the percentage of the lactylamide impurity when heat stressed ([2]; 70° C. for three days vs unstressed): no significant increase; 24 S Isomer [2, 3]: 0.714%; Lacrylamide [2, 3]: 0.087%; Squalamine [2, 3]: 99.168%; 24 S Isomer ([2]; Unstressed): 0.715%; Lacrylamide ([2]; Unstressed): 0.070%; Squalamine ([2]; Unstressed): 99.187%
squalamine dilactate | 80.9 | 80.6 | 70.9 | 91.8 | – | stability under increasingly severe conditions ([1]; four weeks at 40-80° C., compared to the diacetate and digluconate salts): surprisingly stable
